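Exposure lasted 48 hours, with cells grown in 96-well plates and compounds tested at five concentrations. GI50 is the concentration that inhibits growth by half. TGI: total growth inhibition.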
Tests used:
Test in all cases: NCI-60 cell line screen, 48 h
[1] = test system: HT29 colon
[2] = test system: MDA-MB-231 breast
[3] = test system: MOLT-4 leukemia
[4] = test system: SF-539 CNS
[5] = test system: SK-OV-3 ovarian
[6] = test system: SNB-19 CNS
[7] = test system: SR leukemia
[8] = test system: EKVX NSCLC
[9] = test system: SK-MEL-28 melanoma
[10] = test system: UO-31 renal

## O=C(Nc1ccc2[nH]nc(-c3ccncc3)c2c1)[C@@H]1CCN(CC(=O)N2CCN(c3ccc(-c4ncccn4)cc3)CC2)C1
[1]
  GI50: 0.0335 µM
  TGI: > 100 µM
[2]
  GI50: 0.0528 µM
  TGI: > 100 µM
[3]
  GI50: 5.22 µM
  TGI: > 80.6 µM
[4]
  GI50: 5.1 µM
  TGI: 31.3 µM
[5]
  GI50: > 100 µM
  TGI: > 100 µM
[6]
  GI50: > 100 µM
  TGI: > 100 µM
[7]
  GI50: 4.41 µM
  TGI: > 65.4 µM

## CC(N)C(Cc1ccc(Cl)cc1)c1ccc(Cl)cc1 (stereo not given)
[8]
  GI50: 9.22 µM
  TGI: 22.4 µM
[1]
  GI50: 3.29 µM
  TGI: 13.6 µM
[2]
  GI50: 4.26 µM
  TGI: 16.8 µM
[3]
  GI50: 13.6 µM
  TGI: 31.4 µM
[4]
  GI50: 13.3 µM
  TGI: 26.8 µM
[9]
  GI50: 3.86 µM
  TGI: 15.9 µM
[5]
  GI50: 16.8 µM
  TGI: 30.8 µM
[6]
  GI50: 14.1 µM
  TGI: 29.5 µM
[10]
  GI50: 7.12 µM
  TGI: 20.9 µM

## CC(=O)Nc1ccc2c(c1)C(c1ccccc1Cl)=Nc1c(n[nH]c1C)N2
[1]
  GI50: 4.45 µM
  TGI: > 25 µM
[2]
  GI50: > 17.1 µM
  TGI: > 25 µM
[3]
  GI50: 9.75 µM
  TGI: > 25 µM
[4]
  GI50: 0.999 µM
  TGI: 12.5 µM
[9]
  GI50: > 23.5 µM
  TGI: > 25 µM
[5]
  GI50: > 25 µM
  TGI: > 25 µM
[6]
  GI50: 6.36 µM
  TGI: > 25 µM
[7]
  GI50: 1.16 µM
  TGI: > 25 µM
[10]
  GI50: 5.63 µM
  TGI: > 22.5 µM

## COc1cc(/C=C\c2cc(OC)c(OC)c(OC)c2)cc(N/C=C\C(=O)c2ccc(OC(F)(F)F)cc2)c1OC
[1]
  GI50: 3.07 µM
  TGI: 16.5 µM
[2]
  GI50: 3 µM
  TGI: 14.5 µM
[3]
  GI50: 3.99 µM
  TGI: > 100 µM
[4]
  GI50: 2.21 µM
  TGI: 5.92 µM
[9]
  GI50: 10.4 µM
  TGI: > 100 µM
[5]
  GI50: 5.38 µM
  TGI: > 100 µM
[6]
  GI50: 4.97 µM
  TGI: > 100 µM
[7]
  GI50: 2.75 µM
  TGI: 41.1 µM
[10]
  GI50: 5.42 µM
  TGI: > 100 µM

## O=C1NC(Cc2ccc(O)cc2)C(=O)N2CCCC12 (stereo not given)
[8]
  TGI: > 100 µM
[1]
  TGI: > 100 µM
[3]
  TGI: > 100 µM
[4]
  TGI: > 100 µM
[9]
  TGI: > 100 µM
[5]
  TGI: > 100 µM
[6]
  TGI: > 100 µM
[7]
  TGI: > 100 µM
[10]
  TGI: > 100 µM

## OCCN1CCN(CCCN2c3ccccc3Sc3ccc(Cl)cc32)CC1
[8]
  GI50: 3.43 µM
  TGI: 17.7 µM
[1]
  GI50: 1.73 µM
  TGI: 3.42 µM
[2]
  GI50: 1.99 µM
  TGI: 4.78 µM
[3]
  GI50: 2.4 µM
  TGI: 5.79 µM
[4]
  GI50: 1.82 µM
  TGI: 3.94 µM
[9]
  GI50: 1.84 µM
  TGI: 3.31 µM
[5]
  GI50: 3.04 µM
  TGI: 10.2 µM
[6]
  GI50: 2.3 µM
  TGI: 5.7 µM
[10]
  GI50: 4.38 µM
  TGI: 18.3 µM

## Cc1nc(-n2nc(-c3ccccc3)cc2-c2ccccc2)sc1C(=O)/C=C/c1ccc(/C=C/C(=O)c2sc(-n3nc(-c4ccccc4)cc3-c3ccccc3)nc2C)cc1
[8]
  TGI: > 100 µM
[1]
  TGI: 44.8 µM
[3]
  TGI: 68.6 µM
[4]
  TGI: 33.7 µM
[9]
  TGI: 41.8 µM
[5]
  TGI: > 100 µM
[6]
  TGI: 42 µM
[7]
  TGI: 72.4 µM
[10]
  TGI: 42 µM

## O=C(CC(Cl)=C(Cl)Cl)Nc1ccccc1
[8]
  GI50: > 100 µM
  TGI: > 100 µM
[1]
  GI50: > 100 µM
  TGI: > 100 µM
[2]
  GI50: > 100 µM
  TGI: > 100 µM
[3]
  GI50: > 100 µM
  TGI: > 100 µM
[4]
  GI50: > 100 µM
  TGI: > 100 µM
[9]
  GI50: > 100 µM
  TGI: > 100 µM
[5]
  GI50: > 100 µM
  TGI: > 100 µM
[6]
  GI50: > 100 µM
  TGI: > 100 µM
[10]
  GI50: > 100 µM
  TGI: > 100 µM

## N.N.N.N.N.[Co+3].[I-].[N-]=[N+]=[N-]
[8]
  GI50: > 100 µM
  TGI: > 100 µM
[1]
  GI50: > 100 µM
  TGI: > 100 µM
[3]
  GI50: 5.41 µM
  TGI: > 100 µM
[4]
  GI50: > 100 µM
  TGI: > 100 µM
[9]
  GI50: > 100 µM
  TGI: > 100 µM
[5]
  GI50: > 100 µM
  TGI: > 100 µM
[6]
  GI50: > 100 µM
  TGI: > 100 µM
[10]
  GI50: > 100 µM
  TGI: > 100 µM

## O=C(N/C(=C\c1ccc(Cl)cc1)c1nc2ccccc2[nH]1)c1ccccc1
[8]
  TGI: 58.1 µM
[1]
  TGI: 81.3 µM
[3]
  TGI: 43.2 µM
[4]
  TGI: 31.1 µM
[9]
  TGI: 36.4 µM
[5]
  TGI: 79.4 µM
[6]
  TGI: 88 µM
[10]
  TGI: 42.2 µM

## CN(CCN1C(=O)c2cc([N+](=O)[O-])cc3cc([N+](=O)[O-])cc(c23)C1=O)CCN1C(=O)c2cc([N+](=O)[O-])cc3cc([N+](=O)[O-])cc(c23)C1=O
[8]
  TGI: > 100 µM
[1]
  TGI: > 100 µM
[4]
  TGI: > 58.8 µM
[9]
  TGI: 20.3 µM
[5]
  TGI: > 71.5 µM
[6]
  TGI: > 100 µM
[10]
  TGI: > 20.8 µM

## CN(C)C=Nc1ccn(CCO)c(=O)n1
[8]
  TGI: > 100 µM
[1]
  TGI: > 100 µM
[3]
  TGI: > 100 µM
[4]
  TGI: > 100 µM
[9]
  TGI: > 100 µM
[5]
  TGI: > 100 µM
[6]
  TGI: > 100 µM
[7]
  TGI: > 100 µM
[10]
  TGI: > 100 µM

## COc1ccc(C/C(=N/O)C(=O)NCCc2cc(Br)c(OCCCN(C)C)c(Br)c2)cc1Br
[8]
  TGI: 43 µM
[1]
  TGI: 19.1 µM
[4]
  TGI: 29.6 µM
[9]
  TGI: 35.2 µM
[6]
  TGI: 32.6 µM
[10]
  TGI: 42.3 µM

## Cc1c(Cl)cccc1NC(=O)C(=O)C(C(=O)c1ccccc1-c1ccccc1)C1OC(=O)c2ccccc21 (stereo not given)
[8]
  TGI: 59 µM
[1]
  TGI: > 100 µM
[3]
  TGI: 57.8 µM
[4]
  TGI: 28.1 µM
[9]
  TGI: 44.7 µM
[5]
  TGI: > 100 µM
[10]
  TGI: 49.4 µM

## Cc1cn(C2CC(O)C(COC(=O)c3ccccc3)O2)c(=O)[nH]c1=O (stereo not given)
[1]
  TGI: > 100 µM
[3]
  TGI: > 100 µM
[4]
  TGI: > 100 µM
[9]
  TGI: > 100 µM
[6]
  TGI: > 100 µM
[7]
  TGI: > 100 µM

## CCC(C)CCOC(=O)c1ccc(N=Cc2ccc(C=Nc3ccc(C(=O)OCCC(C)CC)cc3)cc2)cc1 (stereo not given)
[8]
  TGI: > 100 µM
[1]
  TGI: > 100 µM
[3]
  TGI: > 100 µM
[4]
  TGI: > 100 µM
[9]
  TGI: > 100 µM
[5]
  TGI: > 100 µM
[6]
  TGI: > 100 µM
[7]
  TGI: > 100 µM
[10]
  TGI: > 100 µM

## Cc1cc(NCCCCCCCCNc2cc(C)nc3cc(N)ccc23)c2ccc(N)cc2n1
[8]
  TGI: 61 µM
[1]
  TGI: 75 µM
[3]
  TGI: > 100 µM
[4]
  TGI: 41.2 µM
[9]
  TGI: 48.3 µM
[5]
  TGI: > 100 µM
[6]
  TGI: 45.4 µM
[7]
  TGI: > 100 µM
[10]
  TGI: > 100 µM

## COC(=O)C(Cc1cc(OC)c(OC)c(OC)c1)C(=O)OC
[8]
  TGI: > 320 µM
[1]
  TGI: > 320 µM
[3]
  TGI: > 320 µM
[9]
  TGI: > 320 µM
[5]
  TGI: > 320 µM
[7]
  TGI: > 320 µM

From PubChem BioAssay (NCI)
